Results taken from patent publication US9029337B2, “Modulation of factor 7 expression” (Isis Pharmaceuticals, Inc., priority 2007, dated 2015).
Strand notation (5' to 3'): a small letter for the sugar, then the base; units joined by * are phosphorothioate-linked, units joined directly phosphodiester-linked; [ ] holds rarer units or linkages, { } end groups; capitals alone tell only the bases. e = 2'-O-(2-methoxyethyl) (MOE); [5mC] = 5-methylcytosine; d = 2'-deoxy (DNA)

Columns and labels:
Assay type in all cases: cell-based
human Factor 7 mRNA [1] = assay: Antisense inhibition of human Factor 7 mRNA in HepB3 cells, 50 nM antisense oligonucleotide, lipofectin; settings: for % Inhibition: Table 13 (microwalk), 50 nM, lipofectin, approximately 24 hours
Summary of the method: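 Readout is percent reduction of Factor 7 message compared with untreated cells, after correction for total RNA content quantified by RIBOGREEN®. Cultures were seeded at 4,000 cells per well and treated for about 24 hours before RNA extraction.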

human Factor 7 mRNA [2] = assay: Dose-dependent antisense inhibition of human Factor 7 in HepB3 cells, lipofectin; settings: HepB3 cells, approx. 16 hours (Table 14)
Procedure: Cells were plated at a density of 4,000 cells per well and treated with lipofectin reagent with 3.125 nM, 6.25 nM, 12.5 nM, 25 nM, 50 nM, and 100 nM concentrations of antisense oligonucleotide, as indicated in Table 3. After a treatment period of approximately 16 hours, RNA was isolated from the cells and Factor 7 mRNA levels were measured by real-time RT-PCR, as described herein. Human Factor 7 primer probe set RTS 2927 (forward sequence: […], incorporated herein as SEQ ID NO: 164; reverse sequence: […], incorporated herein as SEQ ID NO: 165; probe sequence: TGGGTGGTCTCCGCGGCCX, incorporated herein as SEQ ID NO: 166) was used to measure mRNA levels. Factor 7 mRNA levels were adjusted according to total RNA content as measured by RIBOGREEN®. Results are presented as percent inhibition of Factor 7, relative to untreated control cells.
Cells were plated at a density of 4,000 cells per well and transfected using lipofectin reagent with 6.25 nM, 12.5 nM, 25.0 nM, 50.0 nM, and 100.0 nM concentrations of antisense oligonucleotide, as indicated in Table 7. After a treatment period of approximately 16 hours, RNA was isolated from the cells and Factor 7 mRNA levels were measured by real-time RT-PCR, as described herein. Human Factor 7 primer probe set RTS 2927 was used to measure mRNA levels. Factor 7 mRNA levels were adjusted according to total RNA content as measured by RIBOGREEN®. Results are presented as percent inhibition of Factor 7, relative to untreated control cells.
(§1) Cells were plated at a density of 4,000 cells per well and transfected using lipofectin reagent with 3.125 nM, 6.25 nM, 12.5 nM, 25 nM, 50 nM, and 100 nM concentrations of antisense oligonucleotide, as specified in Table 14. After a treatment period of approximately 16 hours, RNA was isolated from the cells and Factor 7 mRNA levels were measured by quantitative real-time PCR. Human Factor 7 primer probe set RTS 2927 was used to measure mRNA levels. Factor 7 mRNA levels were adjusted according to total RNA content, as measured by RIBOGREEN®. Results are presented as percent inhibition of Factor 7, relative to untreated control cells.

human Factor 7 mRNA [3] = assay: Dose-dependent antisense inhibition of human Factor 7 in HepB3 cells, electroporation
Procedure: as §1, with “The gapmers were also transfected via electroporation and their dose-dependent inhibition of human Factor 7 mRNA was measured. Cells” for “Cells”, “20,000” for “4,000”, “via electroporation” for “using lipofectin reagent”, “μM,” for “nM,”, “μM” for “nM”, “15.” for “14.”
Cells were plated at a density of 20,000 cells per well and transfected via electroporation with 3.125 μM, 6.25 μM, 12.5 μM, 25 μM, 50 μM, and 100 μM concentrations of antisense oligonucleotide, as specified in […]. After a treatment period of approximately 16 hours, RNA was isolated from the cells and human Factor 7 mRNA levels were measured by quantitative real-time PCR. Human Factor 7 primer probe set RTS 2927 was used to measure mRNA levels. Factor 7 mRNA levels were adjusted according to total RNA content, as measured by RIBOGREEN®. Results are presented as percent inhibition of Factor 7, relative to untreated control cells.

human Factor 7 mRNA [4] = assay: Antisense inhibition of human Factor 7 with short (14-mer) oligonucleotides in HepB3 cells, electroporation 1,000 nM; settings: electroporation, 1,000 nM antisense oligonucleotide, approximately 24 hours, Factor 7 mRNA relative to untreated control cells
Summary of the method: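 14-mer 2-10-2 MOE gapmers (full phosphorothioate, 5-methyl-C) electroporated at 1,000 nM into HepB3 cells at 20,000 cells/well. After ~24 h, Factor 7 mRNA by real-time RT-PCR, normalized to RiboGreen total RNA. Reported as % inhibition relative to untreated cells.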

[5] = 3.125 μM, approx. 16 hours (Table 15, Example 7)
[6] = 3.125 μM, approx. 16 hours (Table 16, Example 8 confirmation)
[7] = 6.25 μM, approx. 16 hours (Table 15, Example 7)
[8] = 6.25 μM, approx. 16 hours (Table 16, Example 8 confirmation)
[9] = 12.5 μM, approx. 16 hours (Table 15, Example 7)
[10] = 12.5 μM, approx. 16 hours (Table 16, Example 8 confirmation)
[11] = 25 μM, approx. 16 hours (Table 15, Example 7)
[12] = 25 μM, approx. 16 hours (Table 16, Example 8 confirmation)
[13] = 50 μM, approx. 16 hours (Table 15, Example 7)
[14] = 50 μM, approx. 16 hours (Table 16, Example 8 confirmation)
[15] = 100 μM, approx. 16 hours (Table 15, Example 7)
[16] = 100 μM, approx. 16 hours (Table 16, Example 8 confirmation)

Substance: 422086 (antisense eT*eG*e[5mC]*eA*eT*dG*dG*dT*dG*dA*dT*dG*d[5mC]*dT*dT*e[5mC]*eT*eG*eA*eA) [compound 422086]
- % Inhibition (human Factor 7 mRNA [1]): 81%
- percent inhibition of Factor 7 mRNA, relative to untreated control cells (human Factor 7 mRNA [2]; 3.125 nM): 8%
- percent inhibition of Factor 7 mRNA, relative to untreated control cells (human Factor 7 mRNA [2]; 12.5 nM): 46%
- percent inhibition of Factor 7 mRNA, relative to untreated control cells (human Factor 7 mRNA [2]; 25 nM): 65%
- percent inhibition of Factor 7 mRNA, relative to untreated control cells (human Factor 7 mRNA [2]; 50 nM): 83%
- percent inhibition of Factor 7 mRNA, relative to untreated control cells (human Factor 7 mRNA [2]; 100 nM): 90%
- percent inhibition of Factor 7 mRNA, relative to untreated control cells (human Factor 7 mRNA [2]): 26%
- percent inhibition of Factor 7 mRNA, relative to untreated control cells (human Factor 7 mRNA [3]; [5]): 20%
- percent inhibition of Factor 7 mRNA, relative to untreated control cells (human Factor 7 mRNA [3]; [6]): 25%
- percent inhibition of Factor 7 mRNA, relative to untreated control cells (human Factor 7 mRNA [3]; [7]): 34%
- percent inhibition of Factor 7 mRNA, relative to untreated control cells (human Factor 7 mRNA [3]; [8]): 48%
- percent inhibition of Factor 7 mRNA, relative to untreated control cells (human Factor 7 mRNA [3]; [9]): 44%
- percent inhibition of Factor 7 mRNA, relative to untreated control cells (human Factor 7 mRNA [3]; [10]): 74%
- percent inhibition of Factor 7 mRNA, relative to untreated control cells (human Factor 7 mRNA [3]; [11]): 63%
- percent inhibition of Factor 7 mRNA, relative to untreated control cells (human Factor 7 mRNA [3]; [12]): 82%
- percent inhibition of Factor 7 mRNA, relative to untreated control cells (human Factor 7 mRNA [3]; [13]): 75%
- percent inhibition of Factor 7 mRNA, relative to untreated control cells (human Factor 7 mRNA [3]; [14]): 86%
- percent inhibition of Factor 7 mRNA, relative to untreated control cells (human Factor 7 mRNA [3]; [15]): 84%
- percent inhibition of Factor 7 mRNA, relative to untreated control cells (human Factor 7 mRNA [3]; [16]): 90%

Substance: 422087 (antisense e[5mC]*eA*eT*eG*e[5mC]*dA*dT*dG*dG*dT*dG*dA*dT*dG*d[5mC]*eT*eT*e[5mC]*eT*eG) [compound 422087]
- % Inhibition (human Factor 7 mRNA [1]): 83%
- percent inhibition of Factor 7 mRNA, relative to untreated control cells (human Factor 7 mRNA [2]; 3.125 nM): 14%
- percent inhibition of Factor 7 mRNA, relative to untreated control cells (human Factor 7 mRNA [2]; 12.5 nM): 51%
- percent inhibition of Factor 7 mRNA, relative to untreated control cells (human Factor 7 mRNA [2]; 25 nM): 73%
- percent inhibition of Factor 7 mRNA, relative to untreated control cells (human Factor 7 mRNA [2]; 50 nM): 83%
- percent inhibition of Factor 7 mRNA, relative to untreated control cells (human Factor 7 mRNA [2]; 100 nM): 90%
- percent inhibition of Factor 7 mRNA, relative to untreated control cells (human Factor 7 mRNA [2]): 24%
- percent inhibition of Factor 7 mRNA, relative to untreated control cells (human Factor 7 mRNA [3]; [5]): 22%
- percent inhibition of Factor 7 mRNA, relative to untreated control cells (human Factor 7 mRNA [3]; [6]): 19%
- percent inhibition of Factor 7 mRNA, relative to untreated control cells (human Factor 7 mRNA [3]; [7]): 26%
- percent inhibition of Factor 7 mRNA, relative to untreated control cells (human Factor 7 mRNA [3]; [8]): 38%
- percent inhibition of Factor 7 mRNA, relative to untreated control cells (human Factor 7 mRNA [3]; [9]): 48%
- percent inhibition of Factor 7 mRNA, relative to untreated control cells (human Factor 7 mRNA [3]; [10]): 66%
- percent inhibition of Factor 7 mRNA, relative to untreated control cells (human Factor 7 mRNA [3]; [11]): 57%
- percent inhibition of Factor 7 mRNA, relative to untreated control cells (human Factor 7 mRNA [3]; [12]): 75%
- percent inhibition of Factor 7 mRNA, relative to untreated control cells (human Factor 7 mRNA [3]; [13]): 72%
- percent inhibition of Factor 7 mRNA, relative to untreated control cells (human Factor 7 mRNA [3]; [14]): 80%
- percent inhibition of Factor 7 mRNA, relative to untreated control cells (human Factor 7 mRNA [3]; [15]): 80%
- percent inhibition of Factor 7 mRNA, relative to untreated control cells (human Factor 7 mRNA [3]; [16]): 87%

Substance: 422096 (antisense eA*eG*eA*e[5mC]*eA*dA*dT*dG*dG*dT*d[5mC]*dA*dG*dG*dG*e[5mC]*eT*eG*eG*eT) [compound 422096]
- % Inhibition (human Factor 7 mRNA levels) (human Factor 7 mRNA [1]; oligonucleotides targeted to nucleobases 11830 to 11869 of SEQ ID NO: 1 (Table 9)): 76%
- percent inhibition of Factor 7 mRNA, relative to untreated control cells (human Factor 7 mRNA [2]; 3.125 nM): 17%
- percent inhibition of Factor 7 mRNA, relative to untreated control cells (human Factor 7 mRNA [2]; 12.5 nM): 43%
- percent inhibition of Factor 7 mRNA, relative to untreated control cells (human Factor 7 mRNA [2]; 25 nM): 60%
- percent inhibition of Factor 7 mRNA, relative to untreated control cells (human Factor 7 mRNA [2]; 50 nM): 68%
- percent inhibition of Factor 7 mRNA, relative to untreated control cells (human Factor 7 mRNA [2]; 100 nM): 82%
- percent inhibition of Factor 7 mRNA, relative to untreated control cells (human Factor 7 mRNA [2]): 23%
- percent inhibition of Factor 7 mRNA, relative to untreated control cells (human Factor 7 mRNA [3]; [5]): 26%
- percent inhibition of Factor 7 mRNA, relative to untreated control cells (human Factor 7 mRNA [3]; [7]): 30%
- percent inhibition of Factor 7 mRNA, relative to untreated control cells (human Factor 7 mRNA [3]; [9]): 46%
- percent inhibition of Factor 7 mRNA, relative to untreated control cells (human Factor 7 mRNA [3]; [11]): 50%
- percent inhibition of Factor 7 mRNA, relative to untreated control cells (human Factor 7 mRNA [3]; [13]): 62%
- percent inhibition of Factor 7 mRNA, relative to untreated control cells (human Factor 7 mRNA [3]; [15]): 85%

Substance: 435841 (antisense e[5mC]*eT*d[5mC]*dG*dG*dA*d[5mC]*dA*dA*dA*dA*dG*eA*eG) [compound 435841]
- % Inhibition (human Factor 7 mRNA [4]): 1%

Substance: 435842 (antisense eA*eT*dT*dT*d[5mC]*d[5mC]*d[5mC]*dA*dT*dT*dG*dG*e[5mC]*eA) [compound 435842]
- % Inhibition (human Factor 7 mRNA [4]): 0%

Substance: 435843 (antisense eG*e[5mC]*dT*dG*dG*dA*dG*d[5mC]*dT*dG*dA*dG*e[5mC]*e[5mC]) [compound 435843]
- % Inhibition (human Factor 7 mRNA [4]): 0%

Substance: 435844 (antisense eT*eG*dG*d[5mC]*d[5mC]*dA*dG*dT*dG*dG*d[5mC]*d[5mC]*eT*e[5mC]) [compound 435844]
- % Inhibition (human Factor 7 mRNA [4]): 30%

Substance: 435845 (antisense eG*e[5mC]*dT*d[5mC]*dA*dT*dG*dG*d[5mC]*dA*dG*dA*e[5mC]*eA) [compound 435845]
- % Inhibition (human Factor 7 mRNA [4]): 21%

Substance: 435846 (antisense eT*eG*dG*dA*dG*dA*dG*dA*d[5mC]*d[5mC]*dA*dA*eT*eG) [compound 435846]
- % Inhibition (human Factor 7 mRNA [4]): 7%

Substance: 435847 (antisense eT*eG*dG*dT*dG*dT*dG*d[5mC]*dA*d[5mC]*dA*d[5mC]*eA*eT) [compound 435847]
- % Inhibition (human Factor 7 mRNA [4]): 36%

Substance: 435848 (antisense eT*eG*dG*d[5mC]*d[5mC]*dA*d[5mC]*dT*dG*d[5mC]*d[5mC]*dT*e[5mC]*eA) [compound 435848]
- % Inhibition (human Factor 7 mRNA [4]): 32%

Substance: 435849 (antisense eT*eG*d[5mC]*d[5mC]*dG*dT*dA*dG*dT*dG*dG*d[5mC]*e[5mC]*eG) [compound 435849]
- % Inhibition (human Factor 7 mRNA [4]): 31%

Substance: 435850 (antisense e[5mC]*eT*dT*dG*dG*d[5mC]*d[5mC]*dA*dG*dT*dG*dT*eG*eG) [compound 435850]
- % Inhibition (human Factor 7 mRNA [4]): 15%

Substance: 435851 (antisense eA*e[5mC]*dA*dG*dG*d[5mC]*d[5mC]*dA*dG*dG*d[5mC]*dT*eG*eG) [compound 435851]
- % Inhibition (human Factor 7 mRNA [4]): 0%
